Legend:
Format in all cases: in vivo
[1] = test system: sedge, umbrella (small-flower umbrella sedge, Cyperus difformis); assay: Test B flooded paddy test; conditions: Flood, 250 g ai/ha; 0 to 100 scale where 0 is no effect and 100 is complete control; 13 to 15 d
How it was run: (§1)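 Plants at 2-leaf stage flooded to 3 cm above soil, with compounds applied directly to paddy water and that depth maintained. Plants kept in greenhouse 13–15 d. Visual rating versus controls on a 0 (no effect) to 100 (complete control) scale.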

[2] = test system: barnyardgrass (Echinochloa crus-galli); assay: Test B flooded paddy test; conditions: Flood, 250 g ai/ha; 0 to 100 scale where 0 is no effect and 100 is complete control; 13 to 15 d
How it was run: as §1

rice (Oryra sativa) = assay: Test B flooded paddy test; conditions: Flood, 250 g ai/ha; 0 to 100 scale where 0 is no effect and 100 is complete control; 13 to 15 d
How it was run: as §1

[3] = test system: ducksalad (Heteranthera limosa); assay: Test B flooded paddy test; conditions: Flood, 250 g ai/ha; 0 to 100 scale where 0 is no effect and 100 is complete control; 13 to 15 d
How it was run: as §1

[4] = test system: pigweed (Amaranthus retroflexus); assay: Test A postemergence
How it was run: (§2)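 Preemergence directed soil spray on seeded pots, or postemergence application to plants 2–10 cm, one- to two-leaf. Solvent mixture non-phytotoxic, with surfactant. Scored ~10 d later, visually, 0–100 vs untreated.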

corn (Zea mays) = assay: Test A postemergence
How it was run: as §2

Kochia (Kochia scoparia) [5] = assay: Test A postemergence
How it was run: as §2

[6] = test system: wheat (Triticum aestivum); assay: Test A postemergence
How it was run: as §2

[7] = test system: ryegrass, Italian (Italian ryegrass, Lolium multiflorum); assay: Test A postemergence
How it was run: as §2

[8] = test system: barnyardgrass (Echinochloa crus-galli); assay: Test A postemergence
How it was run: as §2

[9] = test system: giant foxtail (Setaria faberii); assay: Test A postemergence
How it was run: as §2

[10] = test system: ragweed (common ragweed, Ambrosia elatior); assay: Test A postemergence
How it was run: as §2

[11] = test system: blackgrass (Alopecurus myosuroides); assay: Test A postemergence
How it was run: as §2

[12] = test system: Galium (catchweed bedstraw, Galium aparine); assay: Test A postemergence
How it was run: as §2

[13] = test system: pigweed (Amaranthus retroflexus); assay: Test A preemergence
Kochia (Kochia scoparia) [14] = assay: Test A preemergence
How it was run: as §2

[15] = test system: ryegrass, Italian (Italian ryegrass, Lolium multiflorum); assay: Test A preemergence
How it was run: as §2

[16] = test system: barnyardgrass (Echinochloa crus-galli); assay: Test A preemergence
How it was run: as §2

[17] = test system: giant foxtail (Setaria faberii); assay: Test A preemergence
How it was run: as §2

[18] = test system: ragweed (common ragweed, Ambrosia elatior); assay: Test A preemergence
How it was run: as §2

[19] = 125 g ai/ha, postemergence, visual rating after approx. 10 d, 0 to 100 scale (0 no effect, 100 complete control)
[20] = Postemergence, 500 g ai/ha, 0 to 100 scale where 0 is no effect and 100 is complete control
[21] = 125 g ai/ha, Preemergence, visual injury after approximately 10 d, 0 to 100 scale where 0 is no effect and 100 is complete control
[22] = Preemergence, 500 g ai/ha, visual injury approx. 10 d
[23] = 500 g ai/ha, postemergence, visual injury, 0 to 100 scale (0 no effect, 100 complete control), approx. 10 d
[24] = 500 g ai/ha, preemergence, 0 to 100 scale, 0 = no effect, 100 = complete control

Compound | Plant response rating, Sedge, Umbrella [1] | Plant response rating, Barnyardgrass [2] | Plant response rating, Rice (rice (Oryra sativa)) | Plant response rating, Ducksalad [3] | Plant response rating, Pigweed [4, 19] | Plant response rating, Corn (corn (Zea mays); [19]) | Plant response rating, Kochia (Kochia (Kochia scoparia) [5]; [19]) | Plant response rating, Wheat [6, 19] | Plant response rating, Ryegrass, Italian [7, 19] | Plant response rating, Barnyardgrass [8, 19] | Plant response rating, Foxtail, Giant [9, 19] | Plant response rating, Ragweed [10, 19] | Plant response rating, Blackgrass [11, 19] | Plant response rating, Galium [12, 19] | Plant response rating, Pigweed [13, 21] | Plant response rating, Kochia (Kochia (Kochia scoparia) [14]; [21]) | Plant response rating, Ryegrass, Italian [15, 21] | Plant response rating, Barnyardgrass [16, 21] | Plant response rating, Foxtail, Giant [17, 21] | Plant response rating, Ragweed [18, 21] | also measured
O=C1NCC(c2cccc(C(F)(F)F)c2F)C1C(=O)Nc1cccc(F)c1F (stereo not drawn) [Compound 591] | 0 | 65 | 35 | 100 | 20 | 70 | 20 | 50 | 0 | 90 | 90 | 0 | 50 | 40 | 0 | 30 | 20 | 90 | 90 | 0 | Plant response rating, Pigweed [4, 20]: 70; Plant response rating, Corn (corn (Zea mays); [20]): 80; Plant response rating, Kochia (Kochia (Kochia scoparia) [5]; [20]): 60; Plant response rating, Wheat [6, 20]: 60; Plant response rating, Ryegrass, Italian [7, 20]: 70; Plant response rating, Barnyardgrass [8, 20]: 90; Plant response rating, Foxtail, Giant [9, 20]: 90; Plant response rating, Ragweed [10, 20]: 30; Plant response rating, Blackgrass [11, 20]: 60; Plant response rating, Galium [12, 20]: 50; Pigweed plant response rating (0 to 100 scale, 0 is no effect, 100 is complete control) [13, 22]: 40; Kochia plant response rating (0 to 100 scale, 0 is no effect, 100 is complete control) (Kochia (Kochia scoparia) [14]; [22]): 60; Ryegrass, Italian plant response rating (0 to 100 scale, 0 is no effect, 100 is complete control) [15, 22]: 60; Barnyardgrass plant response rating (0 to 100 scale, 0 is no effect, 100 is complete control) [16, 22]: 90; Foxtail, Giant plant response rating (0 to 100 scale, 0 is no effect, 100 is complete control) [17, 22]: 90; Ragweed plant response rating (0 to 100 scale, 0 is no effect, 100 is complete control) [18, 22]: 60
CN1CC(c2cc(F)cc(F)c2)C(C(=O)Nc2cccc(F)c2F)C1=O (stereo not drawn) [Compound 644] | 0 | 85 | 15 | 98 | 20 | 70 | 20 | 50 | 50 | 90 | 90 | 0 | 60 | 50 | 60 | 50 | 60 | 90 | 90 | 50 | Plant response rating, Pigweed [4, 23]: 30; Plant response rating, Corn (corn (Zea mays); [23]): 80; Plant response rating, Kochia (Kochia (Kochia scoparia) [5]; [23]): 70; Plant response rating, Wheat [6, 23]: 80; Plant response rating, Ryegrass, Italian [7, 23]: 80; Plant response rating, Barnyardgrass [8, 23]: 90; Plant response rating, Foxtail, Giant [9, 23]: 90; Plant response rating, Ragweed [10, 23]: 40; Plant response rating, Blackgrass [11, 23]: 70; Plant response rating, Galium [12, 23]: 60; Plant response rating, Pigweed [13, 24]: 70; Plant response rating, Kochia (Kochia (Kochia scoparia) [14]; [24]): 80; Plant response rating, Ryegrass, Italian [15, 24]: 90; Plant response rating, Barnyardgrass [16, 24]: 90; Plant response rating, Foxtail, Giant [17, 24]: 90; Plant response rating, Ragweed [18, 24]: 60

From US12077503B2, “Substituted cyclic amides and their use as herbicides” (FMC CORPORATION, priority 2015, dated 2024)
